Experimental data from the supplement of paper PMC13380429.
± gives the standard deviation of the averaged measurements.

How the values were obtained:
Conditions in all cases: 72 h
HepG2 [1] = assay: cell viability relative to DMSO; higher = less toxic
U2OS [2] = assay: as above
Caco-2 [3] = assay: as above
Vero E6 [4] = assay: as above
Calu-3 [5] = assay: as above
HepG2 [6] = assay: drug sensitivity score (DSS) for viability; higher = more toxic; extreme values may be limits of the assay
U2OS [7] = assay: as above
Caco-2 [8] = assay: as above
Vero E6 [9] = assay: as above
Calu-3 [10] = assay: as above
HepG2 [11] = assay: relative viability EC50 (midpoint between 100% and the lowest measured viability); higher = less toxic
U2OS [12] = assay: as above
Caco-2 [13] = assay: as above
Vero E6 [14] = assay: as above
Calu-3 [15] = assay: as above

Structure (SMILES) | cell viability (HepG2 [1]; 1 nM) [%] | cell viability (HepG2 [1]; 10 nM) [%] | cell viability (HepG2 [1]; 100 nM) [%] | cell viability (HepG2 [1]; 1000 nM) [%] | cell viability (HepG2 [1]; 10000 nM) [%] | cell viability (U2OS [2]; 1 nM) [%] | cell viability (U2OS [2]; 10 nM) [%] | cell viability (U2OS [2]; 100 nM) [%] | cell viability (U2OS [2]; 1000 nM) [%] | cell viability (U2OS [2]; 10000 nM) [%] | cell viability (Caco-2 [3]; 1 nM) [%] | cell viability (Caco-2 [3]; 10 nM) [%] | cell viability (Caco-2 [3]; 100 nM) [%] | cell viability (Caco-2 [3]; 1000 nM) [%] | cell viability (Caco-2 [3]; 10000 nM) [%] | cell viability (Vero E6 [4]; 1 nM) [%] | cell viability (Vero E6 [4]; 10 nM) [%] | cell viability (Vero E6 [4]; 100 nM) [%] | cell viability (Vero E6 [4]; 1000 nM) [%] | cell viability (Vero E6 [4]; 10000 nM) [%] | cell viability (Calu-3 [5]; 1 nM) [%] | cell viability (Calu-3 [5]; 10 nM) [%] | cell viability (Calu-3 [5]; 100 nM) [%] | cell viability (Calu-3 [5]; 1000 nM) [%] | cell viability (Calu-3 [5]; 10000 nM) [%] | drug sensitivity score (HepG2 [6]) | drug sensitivity score (U2OS [7]) | drug sensitivity score (Caco-2 [8]) | drug sensitivity score (Vero E6 [9]) | drug sensitivity score (Calu-3 [10]) | relative viability EC50 (HepG2 [11]) [µM] | relative viability EC50 (U2OS [12]) [µM] | relative viability EC50 (Caco-2 [13]) [µM] | relative viability EC50 (Vero E6 [14]) [µM] | relative viability EC50 (Calu-3 [15]) [µM]
C[C@@H]1NC(=O)[C@@H](N)CNC(=O)[C@H](C2CCNC(=N)N2)NC(=O)/C(=C/NC(N)=O)NC(=O)[C@H](CNC(=O)CC(N)CCCN)NC1=O.N=C1NCC[C@H]([C@@H]2NC(=O)/C(=C/NC(N)=O)NC(=O)[C@H](CNC(=O)C[C@@H](N)CCCN)NC(=O)[C@H](CO)NC(=O)[C@@H](N)CNC2=O)N1 [capreomycin] | 94.4 | 102 | 105 | 108 | 99.1 | 103 | 100 | 102 | 96 | 106 | 96.2 | 94.8 | 98 | 95 | 99.3 | 98.8 | 105 | 102 | 94.1 | 94.8 | 104 | 100 | 105 | 95.3 | 108 | 0 | 0 | 0 | 0 | 0 | > 10 | > 10 | > 10 | > 10 | > 10
CN(C)CCNc1nc2cc(O)ccc2c2c1C(=O)c1ccccc1-2 [TAS-103] | 100 | 95.9 | 66.3 | 15.5 | 0.3 | 99.4 | 95.3 | 95.3 | 49.5 | 0 | 102 | 104 | 102 | 56.8 | 22.3 | 101 | 106 | 84.8 | 40 | 0.1 | 109 | 93.4 | 89.1 | 50.4 | 15.4 | 19.7 | 11.5 | 9.6 | 13.4 | 11.1 | 0.19 | 0.975 | 0.915 | 0.634 | 0.67
CCn1cc(C(=O)O)c(=O)c2cc3c(cc21)OCO3 [oxolinic-acid] | 97 | 108 | 113 | 108 | 94.1 | 101 | 101 | 96.2 | 103 | 97 | 109 | 98.9 | 85.3 | 102 | 78.4 | 98.5 | 109 | 109 | 93.6 | 95 | 89.1 | 99.9 | 94.2 | 106 | 93.2 | 0 | 0 | 0.6 | 0 | 0 | > 10 | > 10 | > 10 | > 10 | > 10
NC(=O)c1cnccn1 [pyrazinamide] | 103 | 103 | 105 | 97.9 | 103 | 93.7 | 101 | 98 | 104 | 96 | 104 | 120 | 92.8 | 107 | 89.8 | 105 | 93.5 | 106 | 95.3 | 104 | 99.5 | 100 | 94.2 | 104 | 93 | 0 | 0 | 0 | 0 | 0 | > 10 | > 10 | > 10 | > 10 | > 10
COc1ccc(-c2cnc3c(-c4cccc5ncccc45)cnn3c2)cc1 [ML347] | 105 ± 4 | 96 ± 9.3 | 99.3 ± 3.2 | 98.1 ± 0.57 | 97.2 ± 6.9 | 101 ± 2 | 100 ± 3.1 | 105 ± 6.3 | 102 ± 1.8 | 96.8 ± 4.3 | 107 ± 14 | 100 ± 5.3 | 96.5 ± 2 | 96.05 ± 0.35 | 98.9 ± 8.6 | 102 | 100 | 99 | 99.3 | 105 | 106 ± 9.3 | 101 ± 7.9 | 99.5 ± 2.8 | 101 ± 4.9 | 93.4 ± 8.5 | 0 | 0 | 0 | 0 | 0.1 ± 0.14 | > 10 | > 10 | > 10 | > 10 | > 10
Cc1[nH]c2ccccc2c1CCNCc1ccc(/C=C/C(=O)NO)cc1 [panobinostat] | 104 | 80.6 | 36.8 | -0.3 | -0.4 | 99.2 | 97 | 62.4 | 1.4 | 0.8 | 99.8 | 110 | 68.4 | 1 | 1.1 | 101 | 97.8 | 70.8 | -0.4 | -0.5 | 113 | 113 | 67.8 | 17.5 | 6 | 26.6 | 22.6 | 22.3 | 22.3 | 19.4 | 0.052 | 0.127 | 0.136 | 0.142 | 0.175
CN1CC[C@@H]2CN3CCc4cccc(c43)[C@@H]2C1 [SDZ-SER-082] | 106 | 103 | 104 | 95.8 | 110 | 98.1 | 97.8 | 98.8 | 100 | 95.2 | 86.8 | 98.7 | 93.4 | 103 | 100 | 95.1 | 92.7 | 95.6 | 92.5 | 103 | 95.7 | 102 | 114 | 94.9 | 100 | 0 | 0 | 0 | 0 | 0 | > 10 | > 10 | > 10 | > 10 | > 10
NC(=O)C[S+]([O-])C(c1ccccc1)c1ccccc1 (stereo not given) [MODAFINIL] | 102 ± 17 | 103 ± 1.9 | 99.2 ± 12 | 96.1 ± 15 | 95.3 ± 4.4 | 99.2 ± 1.5 | 97.8 ± 2.8 | 99.7 ± 2.9 | 98.2 ± 3 | 100 ± 4.6 | 103 ± 3.7 | 99.5 ± 2.2 | 109 ± 10 | 100.4 ± 0.42 | 97 ± 2.3 | 97.3 ± 6 | 103 ± 14 | 96.2 ± 15 | 88.6 ± 4 | 104 ± 5.5 | 93 ± 6.5 | 99.4 ± 0.57 | 99.3 ± 6.7 | 102.2 ± 0.35 | 95.8 ± 7.3 | 0.55 ± 0.78 | 0 | 0 | 0 | 0 | > 10 | > 10 | > 10 | > 10 | > 10
O=C(O)[C@H]1CN(C/C=C/P(=O)(O)O)CCN1 [midafotel] | 97.5 | 94 | 104 | 93.1 | 107 | 96.3 | 104 | 99 | 103 | 106 | 102 | 101 | 97.4 | 102 | 98.3 | 95.5 | 93.9 | 95.6 | 91.9 | 106 | 97.6 | 94.8 | 105 | 111 | 97.4 | 0 | 0 | 0 | 0 | 0 | > 10 | > 10 | > 10 | > 10 | > 10
COc1cc(O)c2c(c1)C(=O)c1cc(C)cc(O)c1C2=O [rheochrysidin] | 92.7 | 106 | 108 | 107 | 109 | 93.4 | 98.8 | 101 | 100 | 93.5 | 100 | 109 | 97.9 | 96.9 | 93.5 | 98.9 | 102 | 98.5 | 98.8 | 101 | 101 | 104 | 105 | 101 | 96.8 | 0 | 0 | 0 | 0 | 0 | > 10 | > 10 | > 10 | > 10 | > 10
CNC(=O)CN(CCN(CCN(CC(=O)[O-])CC(=O)NC)CC(=O)[O-])CC(=O)[O-].[Gd+3] [gadodiamide] | 96.6 | 102 | 108 | 98.6 | 93.1 | 103 | 102 | 96.6 | 98.3 | 98.1 | 92.9 | 98.9 | 90.9 | 91.1 | 103 | 97.6 | 101 | 98.5 | 97.9 | 94.3 | 115 | 96.9 | 105 | 98.8 | 108 | 0 | 0 | 0 | 0 | 0 | > 10 | > 10 | > 10 | > 10 | > 10
